Test results taken from article PMC7619385 (ACS infectious diseases, 2025).
Structures can show the parent of a compound that is named as a salt. Where two headings read alike, the source gives them in different places.

Target: T1, LmxCLK1 (Leishmania mexicana, UniProt E9AMP2)
T1 sequence (E9AMP2 1-422): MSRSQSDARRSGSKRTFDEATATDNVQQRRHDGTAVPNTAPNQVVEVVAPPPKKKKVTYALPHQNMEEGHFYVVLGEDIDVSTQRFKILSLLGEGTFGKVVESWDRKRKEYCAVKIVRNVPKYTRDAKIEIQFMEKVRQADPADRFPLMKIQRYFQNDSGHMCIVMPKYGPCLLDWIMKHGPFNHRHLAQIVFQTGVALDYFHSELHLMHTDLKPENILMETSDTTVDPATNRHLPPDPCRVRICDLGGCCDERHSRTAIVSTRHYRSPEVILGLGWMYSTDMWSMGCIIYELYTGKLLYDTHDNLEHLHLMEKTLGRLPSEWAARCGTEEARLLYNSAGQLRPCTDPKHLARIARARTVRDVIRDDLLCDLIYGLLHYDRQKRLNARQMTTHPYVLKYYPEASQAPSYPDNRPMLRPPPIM
Assay: biochemical
Assay type: binding

[1] = DSF, 10 µM compound, 2 µM LmxCLK1, Run 1, read-out: ΔTm Run 1
[2] = DSF, 10 µM compound, 2 µM LmxCLK1, Run 2, read-out: ΔTm Run 2
[3] = DSF, 10 µM compound, 2 µM LmxCLK1, mean of two runs, read-out: ΔTm Average
[4] = DSF, 10 µM compound, 2 µM LmxCLK1, Run 1
[5] = DSF, 10 µM compound, 2 µM LmxCLK1, Run 2
[6] = DSF, 10 µM compound, 2 µM LmxCLK1, mean of two runs

Compound | ΔTm at 10 µM [1] | ΔTm at 10 µM [2] | ΔTm at 10 µM [3] | ΔTm Run 1 [4] | ΔTm Run 2 [5] | ΔTm Average [6] | further results
CNc1nc(Nc2cn(C(C)(C)C#N)nc2C)ncc1C(F)(F)F [GNE-0877] | -0.1 °C | -0.2 °C | -0.1 °C | – | – | – | –
Nc1cc(C(F)(F)F)c(-c2cc(N3CCOCC3)nc(N3CCOCC3)n2)cn1 [BKM120 (NVP-BKM120)] | – | – | – | 0.1 °C | 0.2 °C | 0.1 °C | –
Cc1ccc(C(=O)Nc2ccc(CN3CCN(C)CC3)c(C(F)(F)F)c2)cc1C#Cc1cnc2cccnn12 [Ponatinib (AP24534)] | – | – | – | 0.0 °C | -0.1 °C | -0.1 °C | –
O=c1[nH]c2ccc(Cl)cc2c(N[C@@H]2CN3CCC2CC3)c1-c1nc2ccccc2[nH]1 [CHIR-124] | – | – | – | 0.3 °C | 0.0 °C | 0.2 °C | –
CC[C@@H]1C(=O)N(C)c2cnc(Nc3ccc(C(=O)N[C@H]4CC[C@H](N5CCN(CC6CC6)CC5)CC4)cc3OC)nc2N1C(C)C [Volasertib (BI 6727)] | – | – | – | 0.3 °C | 0.0 °C | 0.2 °C | –
Cc1ccc([N+](=O)[O-])cc1S(=O)(=O)N(C)/N=C/c1cnc2ccc(Br)cn12 [PIK-75] | – | – | – | – | – | – | ΔTm Average: 0.3 °C; ΔTm Run 1: 0.5 °C; ΔTm Run 2: 0.1 °C
Cc1ccc(Nc2nccc(N(C)c3ccc4c(C)n(C)nc4c3)n2)cc1S(N)(=O)=O.Cl [Pazopanib HCl (GW786034 HCl)] | – | – | – | -0.1 °C | 0.0 °C | -0.1 °C | –
O=C(NCCCNc1nc(Nc2cccc(NC(=O)N3CCCC3)c2)ncc1I)c1cccs1 [BX-795] | -0.1 °C | 0.4 °C | 0.2 °C | – | – | – | –
N#Cc1c(Oc2ccc(F)c(NC(=O)Cc3cccc(C(F)(F)F)c3)c2)ccc2nc(NC(=O)C3CC3)sc12 [TAK-632] | – | – | – | 0.2 °C | 0.1 °C | 0.1 °C | –
CN(C)Cc1cccc(N/C(=C2\C(=O)Nc3cc(C(=O)N(C)C)ccc32)c2ccccc2)c1 [BIX 02189] | – | – | – | – | – | – | ΔTm Average: -0.3; ΔTm Run 1: -0.2; ΔTm Run 2: -0.4
CC1=C(C(=O)Nc2cc3cn[nH]c3cc2F)C(c2ccc(C(F)(F)F)cc2)CC(=O)N1 (stereo not drawn) [GSK429286A] | 0.1 °C | 0.2 °C | 0.1 °C | – | – | – | –
Cc1cn(-c2cc(NC(=O)c3ccc(C)c(Nc4nccc(-c5cccnc5)n4)c3)cc(C(F)(F)F)c2)cn1 [Nilotinib (AMN-107)] | – | – | – | 0.0 °C | 0.0 °C | 0.0 °C | –
Cc1nc(N)sc1-c1ccnc(Nc2ccc(N3CCOCC3)cc2)n1 [CYC116] | 0.4 °C | -0.1 °C | 0.1 °C | – | – | – | –
N#CC[C@H](C1CCCC1)n1cc(-c2ncnc3[nH]ccc23)cn1 [Ruxolitinib (INCB018424)] | 0.9 °C | 1.1 °C | 1 °C | – | – | – | –
COc1ccc(-c2ccc3ncc4c(c3c2)n(-c2ccc(N3CCNCC3)c(C(F)(F)F)c2)c(=O)n4C)cn1 [BGT226 (NVP-BGT226)] | – | – | – | 0.9 °C | 0.7 °C | 0.8 °C | –
CNC(=O)c1cc(Oc2ccc(NC(=O)Nc3ccc(Cl)c(C(F)(F)F)c3)cc2)ccn1 [Sorafenib Tosylate] | – | 0.2 °C | – | 0.3 °C | – | 0.3 °C | –
CCn1c2ccccc2c2cc(Nc3ccnc(NCCCN4CCOCC4)n3)ccc21 [EHop-016] | – | – | – | -0.1 °C | 0.0 °C | 0.0 °C | –
OCCn1cc(-c2cnc3nnn(Cc4ccc5ncccc5c4)c3n2)cn1 [PF-04217903] | – | – | – | – | – | – | ΔTm Average: 0.2 °C; ΔTm Run 1: 0.1 °C; ΔTm Run 2: 0.3 °C
Nc1ncnc2c1c(-c1cccc(OCc3ccccc3)c1)cn2[C@H]1C[C@@H](CN2CCC2)C1 [NVP-AEW541] | 0.1 °C | -0.1 °C | 0 °C | – | – | – | –

Compound | ΔTm at 10 µM [1] | ΔTm at 10 µM [2] | ΔTm at 10 µM [3] | ΔTm Run 1 [4] | ΔTm Run 2 [5] | ΔTm Average [6] | further results
COc1cc2nccc(Oc3ccc(NC(=O)Nc4ccc(F)cc4F)c(F)c3)c2cc1OC [Ki8751] | – | – | – | 0.0 °C | -0.2 °C | -0.1 °C | –
Cc1cc(C(=O)NOCCO)c(Nc2ccc(I)cc2F)n(C)c1=O [AZD8330] | 0.5 °C | 0.2 °C | 0.3 °C | – | – | – | –
CCC(=O)Nc1cccc(Oc2nc(Nc3ccc(N4CCN(C)CC4)cc3OC)ncc2Cl)c1 [WZ4003] | 0.1 °C | -0.1 °C | 0 °C | – | – | – | –
CC(C)c1cnn2c(NCc3ccccc3)cc(NCCCCCCN)nc12.Cl [BS-181 HCl] | – | – | – | -0.3 °C | -0.2 °C | -0.3 °C | –
Cn1c(Nc2ccc(C(F)(F)F)cc2)nc2cc(Oc3ccnc(-c4ncc(C(F)(F)F)[nH]4)c3)ccc21 [RAF265 (CHIR-265)] | – | – | – | -0.1 °C | -0.3 °C | -0.2 °C | –
CN(C)c1ccc(-c2nc3ncc(Cl)c(N4CCN(CC(=O)Nc5nccs5)CC4)c3[nH]2)cc1 [CCT129202] | – | – | – | -0.1 °C | 0.0 °C | 0.0 °C | –
Cc1cnc(-c2cnc(NCCNc3ccc(C#N)cn3)nc2-c2ccc(Cl)cc2Cl)[nH]1.Cl [CHIR-99021 (CT99021) HCl] | – | – | – | 0.0 °C | 0.0 °C | 0.0 °C | –
CN(C)C/C=C/C(=O)Nc1cc2c(Nc3ccc(F)c(Cl)c3)ncnc2cc1O[C@H]1CCOC1 [Afatinib (BIBW2992)] | 0.1 °C | -0.5 °C | -0.2 °C | – | – | – | –
Cc1ccc(-n2nc(C(C)(C)C)cc2NC(=O)Nc2ccc(OCCN3CCOCC3)c3ccccc23)cc1 [BIRB 796 (Doramapimod)] | – | – | – | 0.5 °C | 0.4 °C | 0.4 °C | –
Cc1cc2c(F)c(Oc3ncnn4cc(OC[C@@H](C)OC(=O)[C@H](C)N)c(C)c34)ccc2[nH]1 [Brivanib Alaninate (BMS-582664)] | – | – | – | 0.3 °C | 0.1 °C | 0.2 °C | –
CC1(C)CNc2cc(NC(=O)c3cccnc3NCc3ccncc3)ccc21.O=P(O)(O)O.O=P(O)(O)O [Motesanib Diphosphate (AMG-706)] | – | – | – | 0.3 °C | 0.1 °C | 0.2 °C | –
Cc1cc(C(C)Nc2ccccc2)c2nc(N3CCOCC3)cc(=O)n2c1 (stereo not drawn) [TGX-221] | – | – | – | 0.5 °C | 0.3 °C | 0.4 °C | –
CC(C)(C)c1cc(C=C(C#N)C#N)cc(C(C)(C)C)c1O [Tyrphostin 9] | – | – | – | -0.3 °C | -0.3 °C | -0.3 °C | –
CNC(=O)c1ccc(C)c(-n2c(C)cc(OCc3ccc(F)cc3F)c(Br)c2=O)c1 [PH-797804] | -0.1 °C | -0.3 °C | -0.2 °C | – | – | – | –
COc1cc2nccc(Oc3ccc(NC(=O)C4(C(=O)Nc5ccc(F)cc5)CC4)cc3)c2cc1OC [Cabozantinib (XL184)] | – | – | – | 0.3 °C | -0.2 °C | 0.0 °C | –
O=C(NCc1cccc(O)c1)Nc1nc(-c2ccncc2)cs1 [RKI-1447] | – | – | – | -0.1 °C | -0.1 °C | -0.1 °C | –
CN1CCN(c2nc(C3=C(c4c[nH]c5ccccc45)C(=O)NC3=O)c3ccccc3n2)CC1 [Sotrastaurin] | 1.2 °C | 0.9 °C | 1 °C | – | – | – | –
CCN(CC)CCNC(=O)c1c(C)[nH]c(/C=C2\C(=O)Nc3ccc(F)cc32)c1C [Sunitinib Malate] | 0.3 °C | 0.2 °C | 0.2 °C | – | – | – | –
C#Cc1cccc(Nc2ncnc3cc4c(cc23)OCCOCCOCCO4)c1 [Icotinib] | -0.3 °C | -0.2 °C | -0.3 °C | – | – | – | –
